Results reported in patent US11236055B2 (Venenum Biodesign, LLC, priority 2016, dated 2022).

Tests used:
mouse TGR5 receptor = biological target: T1, mouse TGR5 receptor (Mus musculus, UniProt Q80SS6); assay: Mouse TGR5 cAMP production assay (HTRF, Cisbio cAMP HiRange); type: cell-based; settings: HEK293-EBNA cells overexpressing mouse TGR5, HTRF cAMP HiRange; coded A-D
T1 construct: expressed in transfected cells; host or cells: HEK293-EBNA (293 c18, ATCC CRL10852), Hygromycin B selection
T1 sequence (Q80SS6 1-329): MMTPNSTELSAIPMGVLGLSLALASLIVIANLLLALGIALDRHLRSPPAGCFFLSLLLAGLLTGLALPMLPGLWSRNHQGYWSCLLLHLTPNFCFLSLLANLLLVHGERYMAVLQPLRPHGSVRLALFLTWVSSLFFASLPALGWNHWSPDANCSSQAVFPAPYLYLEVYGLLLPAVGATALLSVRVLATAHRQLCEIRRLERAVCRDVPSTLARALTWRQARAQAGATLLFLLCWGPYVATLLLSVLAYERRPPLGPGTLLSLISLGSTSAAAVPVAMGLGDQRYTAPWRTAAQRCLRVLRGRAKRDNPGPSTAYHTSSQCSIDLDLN
Summary of the method: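 cAMP read by HTRF competition after 1 h room-temperature compound exposure of mouse TGR5-overexpressing HEK293-EBNA cells. Cells were suspended in serum-free DMEM containing 500 μM IBMX; compounds ran as 12-point half-log dilutions in duplicate; EC50 derived.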

human TGR5 receptor = biological target: T2, human TGR5 receptor (Homo sapiens, UniProt Q8TDU6); assay: Human TGR5 cAMP production assay; type: cell-based; settings: human TGR5, luminescent cAMP assay; coded A-D; read-out: Human TGR5 Lum. cAMP Activity (EC50)
T2 construct: host or cells: CHO-K1 (hTGR5-CHO cells)
T2 sequence (Q8TDU6 1-330): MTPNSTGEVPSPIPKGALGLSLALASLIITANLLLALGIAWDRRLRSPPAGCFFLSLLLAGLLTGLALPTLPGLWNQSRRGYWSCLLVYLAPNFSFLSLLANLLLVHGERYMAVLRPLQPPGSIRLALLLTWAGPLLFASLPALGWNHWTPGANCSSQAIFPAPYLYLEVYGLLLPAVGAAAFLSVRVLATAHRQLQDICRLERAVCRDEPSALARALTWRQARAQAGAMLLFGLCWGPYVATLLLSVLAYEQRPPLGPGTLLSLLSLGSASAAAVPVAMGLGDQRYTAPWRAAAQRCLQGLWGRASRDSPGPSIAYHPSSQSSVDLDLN
Summary of the method: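 CHO-K1 cells stably expressing human TGR5, with IBMX and cAMP antibody, were exposed to half-log serially diluted compound for 1 h at room temperature. cAMP measured by enzyme-fragment complementation luminescence (XS+ kit) after overnight incubation; EC50 values reported.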

Row | Structure (SMILES) | EC50 (mouse TGR5 receptor) [nM] | EC50 (human TGR5 receptor) [nM]
1 | COc1cnccc1-c1cccc(C2CN(C(=O)CCC(=O)O)CCN2S(=O)(=O)c2cccc(Cl)c2C)c1 (stereo not shown) [Compound 46AH, 4-(4-((3-chloro-2-methylphenyl)sulfonyl)-3-(3-(3-methoxypyridin-4-yl)phenyl)piperazin-1-yl)-4-oxobutanoic acid] | < 100 | 100 to 999
2 | Cc1cnccc1-c1cccc([C@H](C)N(CCCC(=O)NCCNC(=O)[C@@H](N)CS(=O)(=O)O)S(=O)(=O)c2ccccc2C(F)(F)F)c1 [Compound 31AF, (R)-2-amino-3-((2-(4-(N-((S)-1-(3-(3-methylpyridin-4-yl)phenyl)ethyl)-2-(trifluoromethyl)phenylsulfonamido)butanamido)ethyl)amino)-3-oxopropane-1-sulfonic acid] | 100 to 999 | < 100
3 | CC(C)(NS(=O)(=O)c1ccccc1C(F)(F)F)c1cccc(-c2ccc(=O)[nH]c2)c1 [Compound 3, N-(2-(3-(6-oxo-1,6-dihydropyridin-3-yl)phenyl)propan-2-yl)-2-(trifluoromethyl)benzenesulfonamide] | 1000 to 30000 | 100 to 999
4 | Cc1cnccc1-c1cccc([C@H](C)N(CCCC(=O)O)S(=O)(=O)c2ccccc2C(F)(F)F)c1 [Compound 15, (S)-4-(N-(1-(3-(3-methylpyridin-4-yl)phenyl)ethyl)-2-(trifluoromethyl)phenylsulfonamido)-butanoic acid] | 100 to 999 | < 100
5 | COc1cnccc1-c1cccc(C(C)(C)NS(=O)(=O)c2ccc(C(F)(F)F)cc2[N+](=O)[O-])c1 [Compound 2BJ] | 1000 to 30000 | < 100
6 | Cc1cnccc1-c1cccc([C@H](C)N(CCCCNc2c(NCCS(=O)(=O)O)c(=O)c2=O)S(=O)(=O)c2ccccc2C(F)(F)F)c1 | 100 to 999 | < 100
7 | Cc1c(Cl)cccc1S(=O)(=O)N1CCN(C(=O)CS(=O)(=O)O)CC1c1cccc(-c2ccncc2)c1 (stereo not shown) [Compound 49AD, 2-(4-((3-chloro-2-methylphenyl)sulfonyl)-3-(3-(pyridin-4-yl)phenyl)piperazin-1-yl)-2-oxoethanesulfonic acid] | 100 to 999 | 100 to 999
8 | Cc1cnccc1-c1cccc(C(C)(C)NS(=O)(=O)c2ccccc2C)c1 [Compound 2BX] | < 100 | < 100
9 | Cc1cnccc1-c1cccc([C@H](CCCC(=O)NCS(=O)(=O)O)NS(=O)(=O)c2ccccc2C(F)(F)F)c1 [Compound 20BR, (S)-(5-(3-(3-methylpyridin-4-yl)phenyl)-5-(2-(trifluoromethyl)phenylsulfonamido)pentanamido)methanesulfonic acid] | 100 to 999 | 100 to 999
10 | Cc1ccccc1S(=O)(=O)N(CCCC(=O)NCCS(=O)(=O)O)[C@@H](C)c1cccc(-c2ccncc2O)c1 [Compound 22AA, (S)-2-(4-(N-(1-(3-(3-hydroxypyridin-4-yl)phenyl)ethyl)-2-methylphenylsulfonamido)butanamido)ethanesulfonic acid] | 1000 to 30000 | 100 to 999
11 | CCc1cnccc1-c1cccc([C@H](C)N(CCCCNS(=O)(=O)CCC(=O)O)S(=O)(=O)c2cccc(Cl)c2C)c1 [Compound 26AE, (S)-3-(N-(4-(3-chloro-N-(1-(3-(3-ethylpyridin-4-yl)phenyl)ethyl)-2-methylphenylsulfonamido)butyl)sulfamoyl)propanoic acid] | < 100 | < 100
12 | Cc1cnsc1-c1cccc([C@H](C)N(CCCC(=O)O)S(=O)(=O)c2cccc(Cl)c2C)c1 [Compound 16AJ, (S)-4-(3-chloro-2-methyl-N-(1-(3-(4-methylisothiazol-5-yl)phenyl)ethyl)phenyl-sulfonamido)butanoic acid] | 1000 to 30000 | 1000 to 30000
13 | Cc1cnccc1-c1cccc(C2CN(C(=O)CCC(=O)O)CCN2S(=O)(=O)c2ccc(F)cc2C(F)(F)F)c1 (stereo not shown) [Compound 46AL] | 100 to 999 | 100 to 999

Further lines, results first:

Row | EC50 (mouse TGR5 receptor) [nM] | EC50 (human TGR5 receptor) [nM] | Structure (SMILES)
14 | 100 to 999 | < 100 | Cc1cnccc1-c1cccc([C@H](C)N(CCCC(=O)NCCS(N)(=O)=O)S(=O)(=O)c2cccc(Cl)c2C)c1 [Compound 20AJ, (S)-4-(3-chloro-2-methyl-N-(1-(3-(3-methylpyridin-4-yl)phenyl)ethyl)phenylsulfonamido)-N-(2-sulfamoylethyl)butanamide]
15 | 100 to 999 | 100 to 999 | Cc1cnccc1-c1cccc([C@H](C)N(CCOCC(=O)NCCS(=O)(=O)O)S(=O)(=O)c2cccc(Cl)c2C)c1 [Compound 21AO, (S)-2-(2-(2-(3-Chloro-2-methyl-N-(1-(3-(3-methylpyridin-4-yl)phenyl)ethyl)phenylsulfonamido)ethoxy)acetamido)ethanesulfonic acid]
16 | < 100 | 100 to 999 | Cc1cnccc1-c1cccc([C@H](C)N(CCCC(=O)NS(=O)(=O)CCC(=O)O)S(=O)(=O)c2cccc(Cl)c2C)c1 [Compound 20BW, (S)-3-(N-(4-(3-chloro-2-methyl-N-(1-(3-(3-methylpyridin-4-yl)phenyl)ethyl)phenylsulfonamido)butanoyl)sulfamoyl)propanoic acid]
17 | 1000 to 30000 | 1000 to 30000 | Cc1cnccc1-c1cccc([C@H](C)N(CCC(=O)O)S(=O)(=O)c2cccc(Cl)c2C)c1 [Compound 16AK, (S)-3-(3-chloro-2-methyl-N-(1-(3-(3-methylpyridin-4-yl)phenyl)ethyl)phenylsulfonamido)propanoic acid]
18 | < 100 | < 100 | CCc1cnccc1-c1cccc([C@H](C)N(CCCC(=O)O)S(=O)(=O)c2cccc(Cl)c2C)c1 [Compound 16AB, (S)-4-(3-chloro-N-(1-(3-(3-ethylpyridin-4-yl)phenyl)ethyl)-2-methylphenyl-sulfonamido)butanoic acid]
19 | 1000 to 30000 | 100 to 999 | Cc1cnccc1-c1cccc(CCN(CCCNC(=O)NCS(=O)(=O)O)S(=O)(=O)c2cccc(Cl)c2C)c1 [Compound 29AD, (3-(3-(3-chloro-2-methyl-N-(3-(3-methylpyridin-4-yl)phenethyl)phenylsulfonamido)propyl)ureido)methanesulfonic acid]
20 | < 100 | < 100 | CCc1cnccc1-c1cccc([C@H](C)N(CCCCC(=O)O)S(=O)(=O)c2cccc(Cl)c2C)c1 [Compound 16AG, (S)-5-(3-chloro-N-(1-(3-(3-ethylpyridin-4-yl)phenyl)-ethyl)-2-methylphenyl-sulfonamido)pentanoic acid]
21 | 100 to 999 | < 100 | Cc1cnccc1-c1cccc([C@H](C)N(CCCC(=O)NCCOCCOCCOCCC(=O)O)S(=O)(=O)c2cccc(Cl)c2C)c1 [Compound 20AU, (S)-3-((3-chloro-2-methylphenyl)sulfonyl)-2-(3-(3-methylpyridin-4-yl)phenyl)-7-oxo-11,14,17-trioxa-3,8-diazaicosan-20-oic acid]
22 | 100 to 999 | < 100 | Cc1cnccc1-c1cccc([C@H](C)N(CCCC(=O)N2CCC[C@H]2C(=O)O)S(=O)(=O)c2cccc(Cl)c2C)c1 [Compound 21AJ, (S)-1-(4-(3-chloro-2-methyl-N-((S)-1-(3-(3-methylpyridin-4-yl)phenyl)ethyl)phenylsulfonamido)butanoyl)pyrrolidine-2-carboxylic acid]
23 | 100 to 999 | < 100 | Cc1cnccc1-c1cccc([C@H](C)N(CCCCC(=O)NCCOCCN)S(=O)(=O)c2cccc(Cl)c2C)c1 [Compound 20AT, (S)-N-(2-(2-aminoethoxy)ethyl)-5-(3-chloro-2-methyl-N-(1-(3-(3-methylpyridin-4-yl)phenyl)ethyl)phenylsulfonamido)pentanamide]
24 | 100 to 999 | < 100 | Cc1cnccc1-c1cccc(C(C)(C)N(CCCNS(=O)(=O)CCN)S(=O)(=O)c2cccc(Cl)c2C)c1 [Compound 26, N-(3-((2-aminoethyl)sulfonamido)propyl)-3-chloro-2-methyl-N-(2-(3-(3-methylpyridin-4-yl)phenyl)propan-2-yl)benzenesulfonamide]
25 | 100 to 999 | 100 to 999 | Cc1nccc(-c2cccc([C@H](C)N(CCCC(=O)O)S(=O)(=O)c3cccc(Cl)c3C)c2)c1C [Compound 14AG, (S)-4-(3-chloro-N-(1-(3-(2,3-dimethylpyridin-4-yl)phenyl)ethyl)-2-methylphenylsulfonamido)butanoic acid]
26 | < 100 | < 100 | Cc1cnccc1-c1cccc(C(C)(C)N(CCCC(=O)N[C@@H](C)C(=O)O)S(=O)(=O)c2cccc(Cl)c2C)c1 [Compound 21AF, (S)-2-(4-(3-chloro-2-methyl-N-(2-(3-(3-methylpyridin-4-yl)phenyl)propan-2-yl)phenylsulfonamido)butanamido)propanoic acid]
